Consider three compounds from US20230044602A1, “CANCER SIGNATURES, METHODS OF GENERATING CANCER SIGNATURES, AND USES THEREOF” (EDWARD VIA COLLEGE OF OSTEOPATHIC MEDICINE, priority 2019, published 2023).

The test system of one series is GBM patients. Kind of series: Disease-free survival of PGS-stratified TCGA GBM patients treated with or without TMZ. Format: in vivo, human. As to conditions: TCGA training cohort. Here is the method:
Clinical data on adjuvant chemotherapy (ACT) or TMZ administration for the TOGA training cohorts were retrieved from the NCI GDC data portal, and the Buffa hypoxia scores for each patient were retrieved from TOGA PanCancer Atlas through cBioPortal (Ref. 54). Differences in patient benefit from treatment across risk groups were assessed using one-tailed two-sample t-tests on unequal variances and Fisher's Exact Tests. Two-tailed two-sample t-tests on unequal variances assessed the correlation of PGS risk stratification with tumor hypoxia in NSCLC.

The conditions of series [1]: Refs. 3 and 11; cited from earlier work.
A further series concerns NSCLC and GBM. The settings on record: Refs. 83-85; cited from earlier work.

`Cn1nnc2c(C(N)=O)ncn2c1=O` [TMZ, Temozolomide]: the “average DFS time” value in the series with GBM patients (high-risk progression GBM patients (GBM-PGS) treated with TMZ) came out at 10.80 months; with GBM patients (low-risk progression GBM patients (GBM-PGS) treated with TMZ) it was 16.52 months. In addition, the “penetration through the blood-brain barrier” value in series [1] is “efficient penetration”.

As for `NS(=O)(=O)c1cccc2c1C(=O)c1cccc(O)c1C2=O` [LLL12], in the series with NSCLC and GBM, the “efficacy in treating NSCLC and GBM” value is given as “promising efficacy”.

Regarding `Cc1cc(Nc2nc(N[C@@H](C)c3ncc(F)cn3)ncc2Cl)n[nH]1` [AZD1480], in the series with NSCLC and GBM, the “efficacy in treating NSCLC and GBM” value is recorded as “promising efficacy”.
